The text below walks through data of patent US11324725B2, “Compositions and methods for the inhibition of pruritus” (The United States of America, as represented by the …, priority 2017, dated 2022).

Entries after “also recorded” stand apart in the source; their conditions may differ. Like-named read-outs stand apart in the source and are kept apart here.

For the assay, the target named is T1, hNpr1 (Homo sapiens, UniProt P16066).
T1 sequence (P16066 33-1061): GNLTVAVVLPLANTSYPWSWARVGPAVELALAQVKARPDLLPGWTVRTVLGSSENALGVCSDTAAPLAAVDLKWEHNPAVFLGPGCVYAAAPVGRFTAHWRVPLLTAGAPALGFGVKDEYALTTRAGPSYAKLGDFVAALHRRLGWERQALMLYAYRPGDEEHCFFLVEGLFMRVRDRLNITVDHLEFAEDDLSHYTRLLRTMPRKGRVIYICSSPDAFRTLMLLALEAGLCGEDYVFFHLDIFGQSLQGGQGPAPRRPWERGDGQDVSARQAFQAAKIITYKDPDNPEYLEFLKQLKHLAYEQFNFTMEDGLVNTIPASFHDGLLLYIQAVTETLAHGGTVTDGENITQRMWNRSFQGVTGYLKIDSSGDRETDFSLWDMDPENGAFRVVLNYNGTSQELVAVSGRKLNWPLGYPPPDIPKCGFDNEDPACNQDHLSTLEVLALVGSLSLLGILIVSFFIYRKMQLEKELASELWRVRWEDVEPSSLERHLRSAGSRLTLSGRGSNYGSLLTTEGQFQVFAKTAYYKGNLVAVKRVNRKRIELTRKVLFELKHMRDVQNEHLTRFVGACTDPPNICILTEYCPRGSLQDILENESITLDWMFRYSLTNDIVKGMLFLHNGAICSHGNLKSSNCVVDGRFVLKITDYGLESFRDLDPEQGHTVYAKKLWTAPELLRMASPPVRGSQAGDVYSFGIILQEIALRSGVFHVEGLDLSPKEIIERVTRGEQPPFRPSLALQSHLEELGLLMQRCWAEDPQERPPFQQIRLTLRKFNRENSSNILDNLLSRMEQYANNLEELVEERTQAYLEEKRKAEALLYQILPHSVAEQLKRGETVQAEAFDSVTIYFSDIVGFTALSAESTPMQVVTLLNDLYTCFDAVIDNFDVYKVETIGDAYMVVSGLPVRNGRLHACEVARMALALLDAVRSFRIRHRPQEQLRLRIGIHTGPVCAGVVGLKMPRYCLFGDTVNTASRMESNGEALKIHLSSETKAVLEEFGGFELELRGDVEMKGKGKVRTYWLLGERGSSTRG
As to the kind of experiment: qHTS GloSensor cGMP assay, hNppa-stimulated HEK-hNpr1-cGMP-sensor cells (1536-well). Type of assay: cell-based. The following applies: for Imax, HEK-hNpr1-cGMP-sensor cells: −100% = 38.3 μM A-71915; for Inhibition of hNppa-induced hNpr1 activity (in words): HEK-hNpr1-cGMP-sensor cells. From the text:
In order to identify small molecular compounds that inhibit the Npr1 receptor a high-throughput assay to probe inhibition of the receptor guanylate cyclase Npr1 was developed. The assay was designed taking advantage of Promega's GloSensor™ technology (Promega, Madison, Wis.). This technology involves the expression of a cyclic guanosine monophosphate (cGMP) biosensor, comprised of a firefly luciferase variant that was coupled to the cGMP binding domain of human phosphodiesterase 5A, and loading of cells with a cell-permeable luciferase substrate to monitor cGMP production by Npr1 in real time in live cells. Briefly, human embryonic kidney 293 cells stably expressing the human Npr1 and the pGloSensor™-40F cGMP vector (“pGloSensor™-40F”) were generated. Stimulating these cells with the Npr1 agonists human NppA or NppB, luciferase-induced light production could be detected in a dose-dependent manner. HEK293 cells stably expressing human Npr2 and pGS-40F and cells only expressing pGS-40F were also generated to conduct secondary counter screens. In these cells, NppC or sodium nitroprusside were used to stimulate Npr2 or soluble guanylate cyclase which is endogenously expressed in HEK293 cells, respectively. The Npr2-NppC counter screen was employed to search for agents that minimally effected this agonist-receptor interaction. The Npr2-NppC system was used because the side effects of most drugs occur on related receptors. Npr1 and Npr2 are the most related receptors in sequence and function and there are no additional active receptor subtypes in this family of receptors. The procedure is described in detail below.
Measurement of intracellular cGMP production in HEK-hNpr1-cGMP-sensor cells was scaled to 4 μl volumes in 1536-well format and primary screening was performed in an automated manner in 7- to 11-point qHTS. Cells (1.5×10^3) were plated in assay medium in white, solid bottom TC treated 1536-well plates (Greiner Bio-One) with a Multidrop™ Combi Reagent Dispenser (Thermo Fisher Scientific). Cells were incubated at 37° C., 5% CO2 and 95% humidity for 16 hours and 1 μl of GloSensor™ reagent at a final assay concentration of 2% or assay medium as background control was added to respective wells with a BioRAPTR Flying Reagent Dispenser™ (Beckman Coulter, Schaumburg, Ill.). Cells were incubated at room temperature for 2 hours, protected from light. Compound (23 nl) was transferred by a pintool (Kalypsys, San Diego, Calif.) in the concentration range of […] to 46.1 μM along with DMSO and a titration of A-71915 from top concentration 38.3 μM to 1.7 nM in columns 1-4 of each plate as vehicle and positive controls, respectively. Cells were incubated with compound for 30 minutes at room temperature, protected from light. Pre-agonist luminescence for each plate was read on a ViewLux™ plate reader (PerkinElmer). Human NppA (1 μl) at a final assay concentration of 0.1 nM, or C02-independent media were added to respective wells with a BioRAPTR Flying Reagent Dispenser™ (Beckman Coulter). Plates were incubated for 20 minutes at room temperature, protected from light, and luminescence was read on a ViewLux™ plate reader.
Pre-agonist and post-agonist data were normalized by plate to corresponding intra-plate controls as described in Inglese et al., PNAS USA, 103: 11473-11478 (2006) (which is incorporated herein by reference, in its entirety). Assay statistics including S:N and Z′ were calculated using the same respective controls. Pre-agonist data were normalized to the average signal of DMSO-treated wells with 2% GoSensor™ reagent as 0% and the average signal of DMSO-treated wells with assay medium as −100% activity. Post-agonist data were normalized to the average signal of DMSO-treated wells with 2% GoSensor™ reagent and 0.1 nM hNppA as 0% and the average signal of wells treated with 38.3 μM A-71915 with 2% GloSensor™ reagent and 0.1 nM hNppA as −100% activity. […]
Background: In qHTS, concentration-response curves come from the screen itself.

Setting [1] is: Table 1, cell-based GloSensor assay of hNpr1 inhibition, read-out: IC50 GloSensor™ assay.
Setting [2] is: qHTS follow-up, hNppa-stimulated, four-parameter fit, read-out: IC50, HEK-hNpr1-cGMP-sensor cells.
[3] abbreviates: qHTS follow-up, hNppa-stimulated.

In general, IC50 refers to the concentration that inhibits the measured activity by half. Consider `Cl.O=C1Nc2ccccc2CN(CC2CCCCC2)C12CCNCC2` [JS-1, 4-(cyclohexylmethyl)-4,5-dihydrospiro[benzo[e][1,4]diazepine-3,4′-piperidin]-2(1H)-one hydrochloride], for which the half-inhibitory concentration (IC50) came out at 7.31 µM under setting [1] and 26 ± 1.5 µM under setting [2]. In addition, under setting [3], the “Imax, HEK-hNpr1-cGMP-sensor cells” value was −119 ± 20%.
For `O=C(Cc1ccc(Cl)cc1)N1Cc2ccccc2CC2(CCCN2CC2CCNC2)C1` (stereo not drawn) [JS-2, 2-(4-chlorophenyl)-1-(1′-(pyrrolidin-3-ylmethyl)-1,5-dihydrospiro[benzo[c]azepine-4,2′-pyrrolidin]-2(3H)-yl)ethan-1-one], in that order: 13 µM, 25 ± 1.3 µM and −102 ± 9%.
For the molecule `CCC(CC)c1cc([C@H]2CN3CC[C@H]2C[C@@H]3CNS(=O)(=O)c2cccs2)nc(-c2ccncc2)n1` [JS-3, N-(((2R,4S,5R)-5-(6-(pentan-3-yl)-2-(pyridin-4-yl)pyrimidin-4-yl)quinuclidin-2-yl)methyl)thiophene-2-sulfonamide], the IC50 by setting is: under setting [1], 14.1 µM; under setting [2], 62 ± 19 µM. Further, under setting [3], the “Imax, HEK-hNpr1-cGMP-sensor cells” value is listed as −183 ± 67%.
Take `COc1cc(CN2CCC(C)(NC(C)=O)CC2)cc(-c2ccncc2)c1` [JS-4, N-(1-(3-methoxy-5-(pyridin-4-yl)benzyl)-4-methylpiperidin-4-yl)acetamide]: the IC50 under setting [1] is 14.1 µM and the IC50 under setting [2] was 16 ± 13 µM. In addition, the “Imax, HEK-hNpr1-cGMP-sensor cells” value under setting [3] is on record as −110 ± 10%.
With `Cc1noc(C)c1-c1cc(-c2ccccc2Oc2ccccc2)cn2cncc12` [JS-5, 3,5-dimethyl-4-(6-(2-phenoxyphenyl)imidazo[1,5-a]pyridin-8-yl)isoxazole], the “Inhibition of hNppa-induced hNpr1 activity (in words)” value (shortened to “Inhibition”) is reported as “inhibit hNpr1 activity; also recorded: inhibits hNppa-induced hNpr1 activity; also recorded: antagonizes natriuretic peptide-induced activation”. For the same molecule, the IC50 under setting [1] was 28.2 µM. In addition, the IC50 under setting [2] came out at 32 ± 13 µM. In addition, the “Imax, HEK-hNpr1-cGMP-sensor cells” value under setting [3] was −127 ± 12%.
Consider `COc1ccccc1-c1n[nH]c2ncc(C(=O)NCc3cccnc3)nc12` [JS-6, 3-(2-methoxyphenyl)-N-(pyridin-3-ylmethyl)-1H-pyrazolo[3,4-b]pyrazine-5-carboxamide], for which the IC50 by setting is: under setting [1], 11.2 µM; under setting [2], 24 ± 1.2 µM. Besides, under setting [3], the “Imax, HEK-hNpr1-cGMP-sensor cells” value was −15 ± 3%.
As for `O=C(NCc1cccnc1)c1cnc2[nH]nc(-c3ccccc3)c2n1` [JS-7, 3-phenyl-N-(pyridin-3-ylmethyl)-1H-pyrazolo[3,4-b]pyrazine-5-carboxamide], the IC50 under setting [1] is 22.4 µM and the IC50 under setting [2] is 85 ± 22 µM. The “Imax, HEK-hNpr1-cGMP-sensor cells” value under setting [3] is recorded as −216 ± 97%.
With `Cc1nn2c(c1-c1ccccc1OCc1ccccc1)N(C(=O)Cc1ccc3c(c1)OCO3)CCC2` [JS-8, 2-(benzo[d][1,3]dioxol-5-yl)-1-(3-(2-(benzyloxy)phenyl)-2-methyl-6,7-dihydropyrazolo[1,5-a]pyrimidin-4(5H)-yl)ethan-1-one], the “Inhibition” value is “inhibit hNpr1 activity; also recorded: inhibits hNppa-induced hNpr1 activity; also recorded: antagonizes natriuretic peptide-induced activation”. Also, the half-inhibitory concentration (IC50) under setting [1] is 8.91 µM. The IC50 under setting [2] amounted to 13 ± 1.2 µM. Further, under setting [3], the “Imax, HEK-hNpr1-cGMP-sensor cells” value is −122 ± 9%.
`Cc1nn2c(c1-c1ccccc1OCc1ccccc1)N(C(=O)Cc1ccccn1)CCC2` [JS-9, 1-(3-(2-(benzyloxy)phenyl)-2-methyl-6,7-dihydropyrazolo[1,5-a]pyrimidin-4(5H)-yl)-2-(pyridin-2-yl)ethan-1-one]: the IC50 under setting [1] was 8.91 µM and the IC50 under setting [2] is 35 ± 15 µM. The “Imax, HEK-hNpr1-cGMP-sensor cells” value under setting [3] was −106 ± 18%.
For `Cc1nn2c(c1-c1ccccc1Oc1ccccc1)N(C(=O)Cc1ccc3c(c1)OCO3)CCC2` [JS-10, 2-(benzo[d][1,3]dioxol-5-yl)-1-(2-methyl-3-(2-phenoxyphenyl)-6,7-dihydropyrazolo[1,5-a]pyrimidin-4(5H)-yl)ethan-1-one], in that order: 7.94 µM, 17 ± 1.3 µM and −122 ± 12%.
For `Cc1cc(CNC(=O)c2ccc3c(c2)n(CC2CC2)c(=O)n3C2CCCCC2)on1` [JS-11, 1-cyclohexyl-3-(cyclopropylmethyl)-N-((3-methylisoxazol-5-yl)methyl)-2-oxo-2,3-dihydro-1H-benzo[d]imidazole-5-carboxamide], the “Inhibition” value is given as “inhibit hNpr1 activity; also recorded: inhibits hNppa-induced hNpr1 activity; also recorded: antagonizes natriuretic peptide-induced activation”. In addition, under setting [1], the IC50 is 5.62 µM. Under setting [2], the IC50 was determined as 21 ± 1.3 µM. Further, under setting [3], the “Imax, HEK-hNpr1-cGMP-sensor cells” value was −140 ± 13%.
For `COc1ccc(C2(C(=O)N3CCC4(CC3)c3nccn3-c3ccccc3CN4C)CC2)cc1` [JS-12, (1-(4-methoxyphenyl)cyclopropyl)(5-methyl-5,6-dihydrospiro[benzo[f]imidazo[1,2-a][1,4]diazepine-4,4′-piperidin]-1′-yl)methanone], the IC50 is 8.91 µM under setting [1] and 16 ± 1.3 µM under setting [2]. Besides, the “Imax, HEK-hNpr1-cGMP-sensor cells” value under setting [3] is recorded as −116 ± 11%.
Turning to `N#Cc1ccccc1CN1CCCC(C(=O)NCc2ccccc2)CCNC(=O)CC1` (stereo not drawn) [JS-13, N-benzyl-1-(2-cyanobenzyl)-4-oxo-1,5-diazacycloundecane-8-carboxamide], the 50% inhibitory concentration (IC50) runs as follows: under setting [1], 3.98 µM; under setting [2], 10 ± 1.2 µM. Besides, under setting [3], the “Imax, HEK-hNpr1-cGMP-sensor cells” value is on record as −99 ± 6%.
The like results for `CN(Cc1ccccc1)C(=O)c1cn2ccnc(-c3ccccc3)c2n1` [JS-14, N-benzyl-N-methyl-8-phenylimidazo[1,2-a]pyrazine-2-carboxamide] were, in that order, 6.31 µM, 117 ± 75 µM and −286 ± 966%.
